Source: US20240043427A1 (Gilead Sciences, Inc., priority 2020, published 2024)

What was measured:
[1] = molecular target: T1, CD73 (Homo sapiens (Human), UniProt P21589); assay: MDA-MB-231 Cell Based CD73 Activity Assay (DMEM); settings: MDA-MB-231-GFP cells, DMEM medium with 10% human plasma, 200 uM AMP
[2] = molecular target: T1, CD73; type: biochemical; settings: 1 mM NaH2PO4 in enzyme buffer, CD73 0.3 nM, AMP 15 uM

T1 sequence (P21589 27-574): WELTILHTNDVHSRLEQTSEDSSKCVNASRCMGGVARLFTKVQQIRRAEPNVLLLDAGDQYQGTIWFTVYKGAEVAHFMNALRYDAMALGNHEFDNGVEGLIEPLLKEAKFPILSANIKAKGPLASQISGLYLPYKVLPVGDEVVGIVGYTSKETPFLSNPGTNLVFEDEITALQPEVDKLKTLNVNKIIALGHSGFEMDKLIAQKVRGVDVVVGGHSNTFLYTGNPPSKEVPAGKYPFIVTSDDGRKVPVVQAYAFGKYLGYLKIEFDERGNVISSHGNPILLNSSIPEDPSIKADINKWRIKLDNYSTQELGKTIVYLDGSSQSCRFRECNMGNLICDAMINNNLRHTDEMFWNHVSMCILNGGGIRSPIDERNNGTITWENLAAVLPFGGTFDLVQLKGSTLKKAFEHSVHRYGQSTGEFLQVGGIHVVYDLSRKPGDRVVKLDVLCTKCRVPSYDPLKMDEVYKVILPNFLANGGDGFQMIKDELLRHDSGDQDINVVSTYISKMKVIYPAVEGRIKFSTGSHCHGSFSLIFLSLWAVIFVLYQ

Row | Structure (SMILES) | EC50 [1] [µM] | IC50 [2] [µM]
1 | O=C(CC1CN(c2cc(-c3c[nH]c(=O)[nH]c3=O)nn3ccnc23)CC1(F)F)NC1(C(F)(F)F)CC1 (stereo not shown) [Example 658, 2-(1-(6-(2,4-dioxo-1,2,3,4-tetrahydropyrimidin-5-yl)imidazo[1,2-b]pyridazin-8-yl)-4,4-difluoropyrrolidin-3-yl)-N-(1-(trifluoromethyl)cyclopropyl)acetamide] | 0.00788 | 0.00187
2 | CC(C)NC(=O)CC1CN(c2cc(-c3c[nH]c(=O)[nH]c3=O)nn3ccnc23)CC1(F)F (stereo not shown) [Example 659, 2-(1-(6-(2,4-dioxo-1,2,3,4-tetrahydropyrimidin-5-yl)imidazo[1,2-b]pyridazin-8-yl)-4,4-difluoropyrrolidin-3-yl)-N-isopropylacetamide] | 0.0381 | 0.00398
3 | O=C(CC1CN(c2cc(-c3c[nH]c(=O)[nH]c3=O)nn3ccnc23)CC1(F)F)NC12CC(F)(C1)C2 (stereo not shown) [Example 660, 2-(1-(6-(2,4-dioxo-1,2,3,4-tetrahydropyrimidin-5-yl)imidazo[1,2-b]pyridazin-8-yl)-4,4-difluoropyrrolidin-3-yl)-N-(3-fluorobicyclo[1.1.1]pentan-1-yl)acetamide] | 0.0336 | 0.00605
4 | O=C(CC1CN(c2cc(-c3c[nH]c(=O)[nH]c3=O)nn3ccnc23)CC1(F)F)NC12CC(C1)C2 (stereo not shown) [Example 661, N-(bicyclo[1.1.1]pentan-1-yl)-2-(1-(6-(2,4-dioxo-1,2,3,4-tetrahydropyrimidin-5-yl)imidazo[1,2-b]pyridazin-8-yl)-4,4-difluoropyrrolidin-3-yl)acetamide] | 0.0255 | 0.00468
5 | CC(C)NC(=O)C(F)(F)C1CCN(c2cc(-c3c[nH]c(=O)[nH]c3=O)nn3ccnc23)C1 (stereo not shown) [Example 662, 2-(1-(6-(2,4-dioxo-1,2,3,4-tetrahydropyrimidin-5-yl)imidazo[1,2-b]pyridazin-8-yl)pyrrolidin-3-yl)-2,2-difluoro-N-isopropylacetamide] | 0.0886 | 0.0192
6 | CC(C)n1cc(CC2CCN(c3cc(-c4c[nH]c(=O)[nH]c4=O)nn4ccnc34)C2)nn1 (stereo not shown) [Example 663, 5-(8-(3-((1-isopropyl-1H-1,2,3-triazol-4-yl)methyl)pyrrolidin-1-yl)imidazo[1,2-b]pyridazin-6-yl)pyrimidine-2,4(1H,3H)-dione] | 0.16 | 0.0245
7 | O=C(NC1(C(F)(F)F)CC1)O[C@H]1CN(c2cc(-c3c[nH]c(=O)[nH]c3=O)nn3c(F)cnc23)CC1(F)F [Example 664, (S)-1-(6-(2,4-dioxo-1,2,3,4-tetrahydropyrimidin-5-yl)-3-fluoroimidazo[1,2-b]pyridazin-8-yl)-4,4-difluoropyrrolidin-3-yl (1-(trifluoromethyl)cyclopropyl)carbamate] | 0.00021 | 0.00092
8 | O=C(NC12CC(C(F)(F)F)(C1)C2)O[C@H]1CN(c2cc(-c3c[nH]c(=O)[nH]c3=O)nn3c(F)cnc23)CC1(F)F [Example 665, (S)-1-(6-(2,4-dioxo-1,2,3,4-tetrahydropyrimidin-5-yl)-3-fluoroimidazo[1,2-b]pyridazin-8-yl)-4,4-difluoropyrrolidin-3-yl (3-(trifluoromethyl)bicyclo[1.1.1]pentan-1-yl)carbamate] | 0.00279 | 0.00146
9 | O=c1[nH]cc(-c2cc(N3C[C@H](Oc4cc(C(F)(F)F)cnn4)C(F)(F)C3)c3ncc(F)n3n2)c(=O)[nH]1 [Example 666, (S)-5-(8-(3,3-difluoro-4-((5-(trifluoromethyl)pyridazin-3-yl)oxy)pyrrolidin-1-yl)-3-fluoroimidazo[1,2-b]pyridazin-6-yl)pyrimidine-2,4(1H,3H)-dione] | 0.0028 | 0.0018
10 | CC(C)CNc1cc(-c2c[nH]c(=O)[nH]c2=O)nn2ccnc12 [Example 667, 5-(8-(isobutylamino)imidazo[1,2-b]pyridazin-6-yl)pyrimidine-2,4(1H,3H)-dione] | 0.414 | 0.1
11 | CC(C)(C)CNc1cc(-c2c[nH]c(=O)[nH]c2=O)nn2ccnc12 [Example 668, 5-(8-(neopentylamino)imidazo[1,2-b]pyridazin-6-yl)pyrimidine-2,4(1H,3H)-dione] | 0.857 | > 0.25
12 | COCCNc1cc(-c2c[nH]c(=O)[nH]c2=O)nn2ccnc12 [Example 669, 5-(8-((2-methoxyethyl)amino)imidazo[1,2-b]pyridazin-6-yl)pyrimidine-2,4(1H,3H)-dione] | 0.69 | > 0.25
13 | O=c1[nH]cc(-c2cc(NCC(F)F)c3nccn3n2)c(=O)[nH]1 [Example 670, 5-(8-((2,2-difluoroethyl)amino)imidazo[1,2-b]pyridazin-6-yl)pyrimidine-2,4(1H,3H)-dione] | 0.573 | 0.154
14 | COc1ccc(CN(CC(F)F)c2cc(-c3c[nH]c(=O)[nH]c3=O)nn3ccnc23)cc1 [Example 671, 5-(8-((2,2-difluoroethyl)(4-methoxybenzyl)amino)imidazo[1,2-b]pyridazin-6-yl)pyrimidine-2,4(1H,3H)-dione] | 1.62 | > 0.25
15 | O=c1[nH]cc(-c2cc(NCC(F)(F)F)c3nccn3n2)c(=O)[nH]1 [Example 672, 5-(8-((2,2,2-trifluoroethyl)amino)imidazo[1,2-b]pyridazin-6-yl)pyrimidine-2,4(1H,3H)-dione] | 0.383 | 0.148
16 | O=c1[nH]cc(-c2cc(OCCc3ccccc3)c3nccn3n2)c(=O)[nH]1 [Example 673, 5-(8-phenethoxyimidazo[1,2-b]pyridazin-6-yl)pyrimidine-2,4(1H,3H)-dione] | 0.0316 | 0.00546
17 | CC(COc1cc(-c2c[nH]c(=O)[nH]c2=O)nn2ccnc12)c1ccccc1 (stereo not shown) [Example 674, 5-(8-(2-phenylpropoxy)imidazo[1,2-b]pyridazin-6-yl)pyrimidine-2,4(1H,3H)-dione] | 0.0481 | 0.0163
18 | O=c1[nH]cc(-c2cc(OCC(F)(F)F)c3nccn3n2)c(=O)[nH]1 [Example 675, 5-(8-(2,2,2-trifluoroethoxy)imidazo[1,2-b]pyridazin-6-yl)pyrimidine-2,4(1H,3H)-dione] | 0.0787 | 0.0495
19 | CC(C)COc1cc(-c2c[nH]c(=O)[nH]c2=O)nn2ccnc12 [Example 678, 5-(8-isobutoxyimidazo[1,2-b]pyridazin-6-yl)pyrimidine-2,4(1H,3H)-dione] | 0.0388 | 0.0239
20 | CCC(F)(F)COc1cc(-c2c[nH]c(=O)[nH]c2=O)nn2ccnc12 [Example 688, 5-(8-(2,2-difluorobutoxy)imidazo[1,2-b]pyridazin-6-yl)pyrimidine-2,4(1H,3H)-dione] | 0.0342 | 0.00702

Next, values leading:

Row | EC50 [1] [µM] | IC50 [2] [µM] | Structure (SMILES)
21 | 0.429 | 0.141 | CC(C)(COc1cc(-c2c[nH]c(=O)[nH]c2=O)nn2ccnc12)C(F)(F)F [Example 676, 5-(8-(3,3,3-trifluoro-2,2-dimethylpropoxy)imidazo[1,2-b]pyridazin-6-yl)pyrimidine-2,4(1H,3H)-dione]
22 | 0.0222 | 0.0122 | CC(F)(F)COc1cc(-c2c[nH]c(=O)[nH]c2=O)nn2ccnc12 [Example 677, 5-(8-(2,2-difluoropropoxy)imidazo[1,2-b]pyridazin-6-yl)pyrimidine-2,4(1H,3H)-dione]
23 | 0.454 | 0.225 | CC(C)C(C)Oc1cc(-c2c[nH]c(=O)[nH]c2=O)nn2ccnc12 (stereo not shown) [Example 680, 5-(8-((3-methylbutan-2-yl)oxy)imidazo[1,2-b]pyridazin-6-yl)pyrimidine-2,4(1H,3H)-dione]
24 | 0.094 | 0.0613 | O=c1[nH]cc(-c2cc(OCCC(F)(F)F)c3nccn3n2)c(=O)[nH]1 [Example 681, 5-(8-(3,3,3-trifluoropropoxy)imidazo[1,2-b]pyridazin-6-yl)pyrimidine-2,4(1H,3H)-dione]
25 | 0.0179 | 0.00159 | O=c1[nH]cc(-c2cc(OCC(F)(F)c3ccccc3)c3nccn3n2)c(=O)[nH]1 [Example 682, 5-(8-(2,2-difluoro-2-phenylethoxy)imidazo[1,2-b]pyridazin-6-yl)pyrimidine-2,4(1H,3H)-dione]
26 | 0.0109 | 0.00131 | C#CC1(C)CCN(c2cc(-c3c[nH]c(=O)[nH]c3=O)nn3ccnc23)C1 (stereo not shown) [Example 683, 5-(8-(3-ethynyl-3-methylpyrrolidin-1-yl)imidazo[1,2-b]pyridazin-6-yl)pyrimidine-2,4(1H,3H)-dione]
27 | 0.00584 | 0.00129 | C#CC1CCN(c2cc(-c3c[nH]c(=O)[nH]c3=O)nn3ccnc23)C1 (stereo not shown) [Example 684, 5-(8-(3-ethynylpyrrolidin-1-yl)imidazo[1,2-b]pyridazin-6-yl)pyrimidine-2,4(1H,3H)-dione]
28 | 0.551 | > 0.25 | CC(C)(O)C#Cc1cc(-c2c[nH]c(=O)[nH]c2=O)nn2ccnc12 [Example 685, 5-(8-(3-hydroxy-3-methylbut-1-yn-1-yl)imidazo[1,2-b]pyridazin-6-yl)pyrimidine-2,4(1H,3H)-dione]
29 | 0.285 | 0.045 | CC(C)(C)C#Cc1cc(-c2c[nH]c(=O)[nH]c2=O)nn2ccnc12 [Example 686, 5-(8-(3,3-dimethylbut-1-yn-1-yl)imidazo[1,2-b]pyridazin-6-yl)pyrimidine-2,4(1H,3H)-dione]
30 | 0.0535 | 0.00872 | O=c1[nH]cc(-c2cc(OCC(F)(F)CO)c3nccn3n2)c(=O)[nH]1 [Example 687, 5-(8-(2,2-difluoro-3-hydroxypropoxy)imidazo[1,2-b]pyridazin-6-yl)pyrimidine-2,4(1H,3H)-dione]
31 | 0.0106 | 0.00302 | O=c1[nH]cc(-c2cc(OCC(F)(F)C3CC3)c3nccn3n2)c(=O)[nH]1 [Example 689, 5-(8-(2-cyclopropyl-2,2-difluoroethoxy)imidazo[1,2-b]pyridazin-6-yl)pyrimidine-2,4(1H,3H)-dione]
32 | 0.0219 | 0.0127 | O=c1[nH]cc(-c2cc(OCC(F)(F)C(F)(F)F)c3nccn3n2)c(=O)[nH]1 [Example 690, 5-(8-(2,2,3,3,3-pentafluoropropoxy)imidazo[1,2-b]pyridazin-6-yl)pyrimidine-2,4(1H,3H)-dione]
